# Assay results as given in patent publication EP0377642B1, “HERBICIDES FOR WEED CONTROL IN RICE” (E.I. DU PONT DE NEMOURS AND COMPANY, priority 1987, dated 1989).
# Key:
# Assay type in all cases: in vivo
# Cyperus difformis [1] = experiment: Herbicidal efficacy with Bensulfuron methyl and 2,4-D in Thailand (Table 18); conditions: 1500 GAI/HA; 13 days after treatment
# From the text: (§1) Methyl 2-[[[[(4-methoxy-6-methyl-1,3,5-triazin-2-yl)amino]carbonyl]amino]sulfonyl]benzoate (Compound 1) and mixtures thereof with other compounds were applied as a spray (using a hand sprayer) to rice (either transplanted or direct seeded) in several rice growing areas in Southeast Asia and in the U.S. Tables 1-28 contain the results of these tests and clearly exemplify the utility of this invention. The details of each application are included in the appropriate table. [drawing 2]
# Ludwigia linifolia [2] = experiment: as above; conditions: 1500 GAI/HA; 13 days after treatment
# From the text: as §1
# Sphenoclea zeylanica [3] = experiment: as above; conditions: 1500 GAI/HA; 13 days after treatment
# From the text: as §1
# rice [4] = experiment: as above; conditions: 1500 GAI/HA; 13 days after treatment
# From the text: as §1
# Ludwigia linifolia [5] = experiment: Herbicidal efficacy with Bensulfuron methyl and 2,4-D in Thailand (Table 19); conditions: 1500 GAI/HA; 13 days after treatment
# From the text: as §1
# Sphenoclea zeylanica [6] = experiment: as above; conditions: 1500 GAI/HA; 13 days after treatment
# From the text: as §1
# rice [7] = experiment: as above; conditions: 1500 GAI/HA; 13 days after treatment
# From the text: as §1
# Cuperus difformis = experiment: as above; conditions: 1500 GAI/HA; 13 days after treatment
# From the text: as §1
# FIMBRISTYLIS MILIACEA [8] = experiment: Herbicidal efficacy with Bensulfuron methyl and 2,4-D in Thailand (Table 20); conditions: 1500 GAI/HA; 14 days after treatment
# From the text: as §1
# Ludwigia linifolia [9] = experiment: as above; conditions: 1500 GAI/HA; 14 days after treatment
# From the text: as §1
# Cuperus iria = experiment: as above; conditions: 1500 GAI/HA; 14 days after treatment
# From the text: as §1
# Sphenoclea zeylanica [10] = experiment: as above; conditions: 1500 GAI/HA; 14 days after treatment
# From the text: as §1
# rice [11] = experiment: as above; conditions: 1500 GAI/HA; 14 days after treatment
# From the text: as §1
# Scirpus grossus = experiment: Herbicidal efficacy alone and with 2,4-D in Malaysia, applied 30 days after seeding (Table 8); conditions: 22 days after treatment
# From the text: as §1
# Monochoria vaginalis [12] = experiment: as above; conditions: 22 days after treatment
# From the text: as §1
# Cyperus difformis [13] = experiment: as above; conditions: 22 days after treatment
# From the text: as §1
# FIMBRISTYLIS MILIACEA [14] = experiment: as above; conditions: 22 days after treatment
# From the text: as §1
# Marsilea crenata = experiment: as above; conditions: 22 days after treatment
# From the text: as §1
# Sphenoclea zeylanica [15] = experiment: as above; conditions: 22 days after treatment
# From the text: as §1
# Monochoria vaginalis [16] = experiment: Herbicidal efficacy with 2,4-D in Malaysia (Table 21); conditions: 1000 GAI/HA; 42 days after treatment
# From the text: as §1
# FIMBRISTYLIS MILIACEA [17] = experiment: as above; conditions: 1000 GAI/HA; 42 days after treatment
# From the text: as §1
# Saggittaria guayanensis = experiment: as above; conditions: 1000 GAI/HA; 42 days after treatment
# From the text: as §1
# Masilea crenata = experiment: as above; conditions: 1000 GAI/HA; 42 days after treatment
# From the text: as §1
# Ludwigia adscendens = experiment: as above; conditions: 1000 GAI/HA; 42 days after treatment
# From the text: as §1
# Scirpus spp. = experiment: as above; conditions: 1000 GAI/HA; 42 days after treatment
# From the text: as §1
structure (smiles),measurement,setting,value
"O=C(O)COc1ccc(Cl)cc1Cl [2,4-D, 2,4-dichlorophenoxyacetic acid]",% CONTROL OR INJURY CD,Cyperus difformis [1],100%
same,% CONTROL OR INJURY LL,Ludwigia linifolia [2],100%
same,% CONTROL OR INJURY SZ,Sphenoclea zeylanica [3],90%
same,% CONTROL OR INJURY RICE,rice [4],0%
same,% CONTROL OR INJURY LL,Ludwigia linifolia [5],97%
same,% CONTROL OR INJURY SZ,Sphenoclea zeylanica [6],86%
same,% CONTROL OR INJURY RICE,rice [7],0%
same,% CONTROL OR INJURY CD,Cuperus difformis,100%
same,% CONTROL OR INJURY FM,FIMBRISTYLIS MILIACEA [8],100%
same,% CONTROL OR INJURY LL,Ludwigia linifolia [9],100%
same,% CONTROL OR INJURY CI,Cuperus iria,100%
same,% CONTROL OR INJURY SZ,Sphenoclea zeylanica [10],33.3%
same,% CONTROL OR INJURY RICE,rice [11],0%
same,% CONTROL SG,Scirpus grossus; 500 GAI/HA,50%
same,% CONTROL SG,Scirpus grossus; 1000 GAI/HA,75%
same,% CONTROL MV,Monochoria vaginalis [12]; 500 GAI/HA,90%
same,% CONTROL MV,Monochoria vaginalis [12]; 1000 GAI/HA,100%
same,% CONTROL CD,Cyperus difformis [13]; 500 GAI/HA,95%
same,% CONTROL CD,Cyperus difformis [13]; 1000 GAI/HA,100%
same,% CONTROL FM,FIMBRISTYLIS MILIACEA [14]; 500 GAI/HA,100%
same,% CONTROL FM,FIMBRISTYLIS MILIACEA [14]; 1000 GAI/HA,100%
same,% CONTROL MC,Marsilea crenata; 500 GAI/HA,0%
same,% CONTROL MC,Marsilea crenata; 1000 GAI/HA,0%
same,% CONTROL SZ,Sphenoclea zeylanica [15]; 500 GAI/HA,100%
same,% CONTROL SZ,Sphenoclea zeylanica [15]; 1000 GAI/HA,100%
same,% CONTROL OR INJURY MV,Monochoria vaginalis [16],100%
same,% CONTROL OR INJURY FM,FIMBRISTYLIS MILIACEA [17],73%
same,% CONTROL OR INJURY SG,Saggittaria guayanensis,74%
same,% CONTROL OR INJURY MC,Masilea crenata,56%
same,% CONTROL OR INJURY LA,Ludwigia adscendens,93%
same,% CONTROL OR INJURY SS,Scirpus spp.,55%
